What was measured:
Format in all cases: in vivo
[1] = tested on: ryegrass, Italian (Italian ryegrass, Lolium multiflorum); assay: Test A postemergence ryegrass, Italian; details: 0 to 100 scale, 0 is no effect, 100 is complete control
Source text: (§1) Seeds of plant species selected from barnyardgrass (Echinochloa crus-galli), kochia (Kochia scoparia), ragweed (common ragweed, Ambrosia elatior), ryegrass, Italian (Italian ryegrass, Lolium multiflorum), crabgrass, large (large crabgrass, Digitaria sanguinalis), foxtail, giant (giant foxtail, Setaria faberii), morningglory (Ipomoea spp.), pigweed (Amaranthus retroflexus), velvetleaf (Abutilon theophrasti), wheat (Triticum aestivum), and corn (Zea mays) were planted into a blend of loam soil and sand and treated preemergence with a directed soil spray using test chemicals formulated in a non-phytotoxic solvent mixture which included a surfactant.
(§2) At the same time, plants selected from these crop and weed species and also blackgrass (Alopecurus myosuroides), and galium (catchweed bedstraw, Galium aparine) were planted in pots containing the same blend of loam soil and sand and treated with postemergence applications of test chemicals formulated in the same manner. Plants ranged in height from 2 to 10 cm and were in the one- to two-leaf stage for the postemergence treatment. Treated plants and untreated controls were maintained in a greenhouse for approximately 10 d, after which time all treated plants were compared to untreated controls and visually evaluated for injury. Plant response ratings, summarized in Table A, are based on a 0 to 100 scale where 0 is no effect and 100 is complete control. A dash (-) response means no test result.

[2] = tested on: pigweed (Amaranthus retroflexus); assay: Test A preemergence pigweed; details: 0 to 100 scale, 0 no effect, 100 complete control
Source text: as §1, §2

[3] = tested on: sedge, umbrella (small-flower umbrella sedge, Cyperus difformis); assay: Test B flooded paddy test sedge, umbrella; details: Table B, Flood, scale 0 to 100
Description: (§3) Plant species in the flooded paddy test selected from rice (Oryza sativa), sedge, umbrella (small-flower umbrella sedge, Cyperus difformis), ducksalad (Heteranthera limosa), and barnyardgrass (Echinochloa crus-galli) were grown to the 2-leaf stage for testing. At the time of treatment, test pots were flooded to 3 cm above the soil surface, treated by application of test compounds directly to the paddy water, and then maintained at that water depth for the duration of the test. Treated plants and controls were maintained in a greenhouse for 13 to 15 d, after which time all species were compared to controls and visually evaluated. […] A dash (-) response means no test result.

[4] = tested on: ragweed (common ragweed, Ambrosia elatior); assay: Test A postemergence ragweed; details: 0 to 100 scale, 0 is no effect, 100 is complete control
Source text: as §1, §2

[5] = tested on: pigweed (Amaranthus retroflexus); assay: Test A postemergence pigweed; details: 0 to 100 scale, 0 is no effect, 100 is complete control
Source text: as §1, §2

[6] = tested on: barnyardgrass (Echinochloa crus-galli); assay: Test B flooded paddy test barnyardgrass; details: Table B, Flood, scale 0 to 100
Description: as §3

[7] = tested on: ducksalad (Heteranthera limosa); assay: Test B flooded paddy test ducksalad; details: Table B, Flood, scale 0 to 100
Description: as §3

[8] = tested on: foxtail, giant (giant foxtail, Setaria faberii); assay: Test A postemergence foxtail, giant; details: 0 to 100 scale, 0 is no effect, 100 is complete control
Source text: as §1, §2

rice (Oryza sativa) = assay: Test B flooded paddy test rice; details: Table B, Flood, scale 0 to 100
Description: as §3

corn (Zea mays) = assay: Test A postemergence corn; details: 0 to 100 scale, 0 is no effect, 100 is complete control
Source text: as §1, §2

[9] = tested on: wheat (Triticum aestivum); assay: Test A postemergence wheat; details: 0 to 100 scale, 0 is no effect, 100 is complete control
Source text: as §1, §2

kochia (Kochia scoparia) [10] = assay: Test A preemergence kochia; details: 0 to 100 scale, 0 no effect, 100 complete control
Source text: as §1, §2

[11] = tested on: galium (catchweed bedstraw, Galium aparine); assay: Test A postemergence galium; details: 0 to 100 scale, 0 is no effect, 100 is complete control
Source text: as §1, §2

[12] = tested on: ragweed (common ragweed, Ambrosia elatior); assay: Test A preemergence ragweed; details: 0 to 100 scale, 0 no effect, 100 complete control
Source text: as §1, §2

[13] = tested on: barnyardgrass (Echinochloa crus-galli); assay: Test A postemergence barnyardgrass; details: 0 to 100 scale, 0 is no effect, 100 is complete control
Source text: as §1, §2

[14] = tested on: ryegrass, Italian (Italian ryegrass, Lolium multiflorum); assay: Test A preemergence ryegrass, Italian; details: 0 to 100 scale, 0 no effect, 100 complete control
Source text: as §1, §2

[15] = tested on: blackgrass (Alopecurus myosuroides); assay: Test A postemergence blackgrass; details: 0 to 100 scale, 0 is no effect, 100 is complete control
Source text: as §1, §2

[16] = tested on: barnyardgrass (Echinochloa crus-galli); assay: Test A preemergence barnyardgrass; details: 0 to 100 scale; for Barnyardgrass plant response rating: 0 no effect, 100 complete control; for Plant response rating, Barnyardgrass: 0 is no effect, 100 is complete control
Source text: as §1, §2

kochia (Kochia scoparia) [17] = assay: Test A postemergence kochia; details: 0 to 100 scale, 0 is no effect, 100 is complete control
Source text: as §1, §2

[18] = tested on: foxtail, giant (giant foxtail, Setaria faberii); assay: Test A preemergence foxtail, giant; details: 0 to 100 scale, 0 no effect, 100 complete control
Source text: as §1, §2

SMILES	Plant response rating, Ryegrass, Italian ([1]; 125 g ai/ha)	Plant response rating, Ryegrass, Italian ([1]; 500 g ai/ha)	Pigweed plant response rating ([2]; 125 g ai/ha)	Pigweed plant response rating ([2]; 500 g ai/ha)	Plant response rating, Ragweed ([4]; 125 g ai/ha)	Plant response rating, Ragweed ([4]; 500 g ai/ha)	Plant response rating, Pigweed ([5]; 125 g ai/ha)	Plant response rating, Pigweed ([5]; 500 g ai/ha)	Plant response rating, Foxtail, Giant ([8]; 125 g ai/ha)	Plant response rating, Foxtail, Giant ([8]; 500 g ai/ha)	Plant response rating, Corn (corn (Zea mays); 125 g ai/ha)	Plant response rating, Corn (corn (Zea mays); 500 g ai/ha)	Plant response rating, Wheat ([9]; 125 g ai/ha)	Plant response rating, Wheat ([9]; 500 g ai/ha)	Kochia plant response rating (kochia (Kochia scoparia) [10]; 125 g ai/ha)	Kochia plant response rating (kochia (Kochia scoparia) [10]; 500 g ai/ha)	Plant response rating, Galium ([11]; 125 g ai/ha)	Plant response rating, Galium ([11]; 500 g ai/ha)	Ragweed plant response rating ([12]; 125 g ai/ha)	Ragweed plant response rating ([12]; 500 g ai/ha)	further results
O=C1NCC[C@@H](c2ccc(C(F)(F)F)cc2)[C@@H]1C(=O)Nc1cccc(F)c1F [Compound 23]	0	20	0	0	0	0	0	0	20	60	0	20	0	20	0	40	0	20	0	60	Plant response rating ([3]; 250 g ai/ha): 0; Plant response rating ([6]; 250 g ai/ha): 0; Plant response rating ([7]; 250 g ai/ha): 0; Plant response rating (rice (Oryza sativa); 250 g ai/ha): 0; Plant response rating, Barnyardgrass ([13]; 125 g ai/ha): 20; Plant response rating, Barnyardgrass ([13]; 500 g ai/ha): 70; Ryegrass, Italian plant response rating ([14]; 125 g ai/ha): 0; Ryegrass, Italian plant response rating ([14]; 500 g ai/ha): 20; Plant response rating, Blackgrass ([15]; 125 g ai/ha): 0; Plant response rating, Blackgrass ([15]; 500 g ai/ha): 10; Barnyardgrass plant response rating ([16]; 125 g ai/ha): 30; Barnyardgrass plant response rating ([16]; 500 g ai/ha): 70; Plant response rating, Kochia (kochia (Kochia scoparia) [17]; 125 g ai/ha): 20; Plant response rating, Kochia (kochia (Kochia scoparia) [17]; 500 g ai/ha): 50; Foxtail, Giant plant response rating ([18]; 125 g ai/ha): 30; Foxtail, Giant plant response rating ([18]; 500 g ai/ha): 80
O=C1NCCC(c2ccccc2C(F)(F)F)C1C(=O)Nc1ccccc1C(F)(F)F (racemic) [Compound 7]	0	0	0	0	0	0	0	0	0	0	0	0	0	0	0	0	0	0	0	0	Plant response rating ([3]; 1000 g ai/ha): 0; Plant response rating ([6]; 1000 g ai/ha): 0; Plant response rating ([7]; 1000 g ai/ha): 0; Plant response rating (rice (Oryza sativa); 1000 g ai/ha): 0; Plant response rating, Barnyardgrass ([13]; 125 g ai/ha): 0; Plant response rating, Barnyardgrass ([13]; 500 g ai/ha): 0; Ryegrass, Italian plant response rating ([14]; 125 g ai/ha): 0; Ryegrass, Italian plant response rating ([14]; 500 g ai/ha): 0; Plant response rating, Blackgrass ([15]; 125 g ai/ha): 0; Plant response rating, Blackgrass ([15]; 500 g ai/ha): 0; Barnyardgrass plant response rating ([16]; 125 g ai/ha): 0; Plant response rating, Barnyardgrass ([16]; 500 g ai/ha): 0; Plant response rating, Kochia (kochia (Kochia scoparia) [17]; 125 g ai/ha): 0; Plant response rating, Kochia (kochia (Kochia scoparia) [17]; 500 g ai/ha): 0; Foxtail, Giant plant response rating ([18]; 125 g ai/ha): 0; Foxtail, Giant plant response rating ([18]; 500 g ai/ha): 0
O=C1NCCC(c2ccccc2C(F)(F)F)C1C(=O)Nc1cccc(F)c1F (racemic) [Compound 8]	0	0	0	0	0	0	0	0	0	0	0	0	0	0	0	0	0	0	0	0	Plant response rating, Barnyardgrass ([13]; 125 g ai/ha): 0; Plant response rating, Barnyardgrass ([13]; 500 g ai/ha): 0; Ryegrass, Italian plant response rating ([14]; 125 g ai/ha): 0; Ryegrass, Italian plant response rating ([14]; 500 g ai/ha): 0; Plant response rating, Blackgrass ([15]; 125 g ai/ha): 0; Plant response rating, Blackgrass ([15]; 500 g ai/ha): 0; Barnyardgrass plant response rating ([16]; 125 g ai/ha): 0; Plant response rating, Barnyardgrass ([16]; 500 g ai/ha): 0; Plant response rating, Kochia (kochia (Kochia scoparia) [17]; 125 g ai/ha): 0; Plant response rating, Kochia (kochia (Kochia scoparia) [17]; 500 g ai/ha): 0; Foxtail, Giant plant response rating ([18]; 125 g ai/ha): 0; Foxtail, Giant plant response rating ([18]; 500 g ai/ha): 0

From patent US9944602B2, “Piperidinone herbicides” (E. I. DU PONT DE NEMOURS AND COMPANY, priority 2014, dated 2018)
